“Also recorded” adds a separate entry of the source. Where a name gives a salt, the structure may show the parent alone.
How the values were obtained:
Type in all cases: physicochemical
[1] = Heating experiments and VT-XRPD (N2 drying, heating, cooling back): form change; conditions: for form conversion, summary statement: after desolvation; for Form after heating: solid form by XRPD after heating, cells marked *, # have footnotes that are not shown
Excerpt: (§1) For XRPD analysis, a PANalytical Empyrean and X′ Pert3 X-ray powder diffract meter was used.

[2] = Relative thermodynamic stability of HCl salt forms (desolvation and form conversion data); conditions: for Form after desolvation: solvates of HCl salt
Description: Starting from HCl salt materials with different forms, a total of 100 polymorph screening experiments was performed using different crystallization methods including salt formation by liquid vapor diffusion/slurry at elevated temperature, evaporation at RT/high temperatures, slurry and reverse anti-solvent addition at different temperatures, slow/crash cooling, polymer induced crystallization and grinding. All the resulting solids were isolated for XRPD test, and new forms were further characterized by TGA, DSC, ^1H NMR and HPLC/ IC.
An additional polymorph screening was performed for 18-MC HCl salt.

[3] = Physical form stability on storage at RT, air drying or exposure to ambient conditions (XRPD); conditions: for Form after treatment: metastable forms; for form change after exposure to ambient conditions (XRPD): exposure to ambient conditions for ~30 min
Excerpt: as §1

[4] = after storage or heating experiments
[5] = after air drying or RT storage, duration not stated

COCC[C@H]1CC2CN3CCc4c([nH]c5ccccc45)[C@](C(=O)OC)(C2)[C@H]13 [HCl salt Type Q, 18-methoxycoronaridine]
form change after N2 drying (VT-XRPD) ([1]; N2-drying for 20 min at 30° C.): no form change | form conversion, summary statement [1]: converted to HCl salt Type A | form change after heating (VT-XRPD) ([1]; heating to 100° C., 130° C., 160° C. and cooling back to 30° C. under N2 protection): form change to a mixture of HCl salt Type A and freebase Type A | Form after desolvation [2]: HCl salt Type A+freebase Type A

COCC[C@H]1CC2CN3CCc4c([nH]c5ccccc45)[C@](C(=O)OC)(C2)[C@H]13 [HCl salt Type G, 18-methoxycoronaridine]
Form after treatment ([3]; RT storage): HCl salt Type A^# | Form after heating [1]: HCl salt Type A**

COCC[C@H]1CC2CN3CCc4c([nH]c5ccccc45)[C@](C(=O)OC)(C2)[C@H]13 [HCl salt Type R, 18-methoxycoronaridine]
form conversion, summary statement [1]: converted to HCl salt Type A | form change after heating (XRPD) ([1]; heating to 170° C. and cooling back to ambient condition): converted to HCl salt Type A | Form after desolvation [2]: HCl salt Type A

COCC[C@H]1CC2CN3CCc4c([nH]c5ccccc45)[C@](C(=O)OC)(C2)[C@H]13 [HBr salt Type C, 18-methoxycoronaridine]
form conversion, summary statement [3, 4]: could convert to HBr salt Type A | form change after heating (XRPD/VT-XRPD) ([1]; heating to 100° C.): peak of HBr salt Type A was observed | form change after heating (XRPD) ([1]; heating to 150° C.): most diffraction peaks were consistent with HBr salt Type A

COCC[C@H]1CC2CN3CCc4c([nH]c5ccccc45)[C@](C(=O)OC)(C2)[C@H]13 [HCl salt Type N, 18-methoxycoronaridine]
Form after treatment ([3]; RT storage): HCl salt Type A^# | form conversion, summary statement [3, 5]: converted to HCl salt Type A

COCC[C@H]1CC2CN3CCc4c([nH]c5ccccc45)[C@](C(=O)OC)(C2)[C@H]13 [tosylate Type D, 18-methoxycoronaridine]
form change after exposure to ambient conditions (XRPD) [3]: converted to tosylate Type B | form change after heating (XRPD/VT-XRPD) ([1]; heating to 100° C.): no form change | form change after heating (VT-XRPD) ([1]; heating to 140° C. under N2 protection): an amorphous pattern was observed

COCC[C@H]1CC2CN3CCc4c([nH]c5ccccc45)[C@](C(=O)OC)(C2)[C@H]13 [HCl salt Type E, 18-methoxycoronaridine]
Form after treatment ([3]; Air drying): HCl salt Type A** | Form after heating [1]: HCl salt Type A**

COCC[C@H]1CC2CN3CCc4c([nH]c5ccccc45)[C@](C(=O)OC)(C2)[C@H]13 [tosylate Type H, 18-methoxycoronaridine]
form change after air drying (XRPD) ([3]; air drying for ~3 hours): form change to tosylate Type A | Speculated form (physical stability) ([3]; form characterization summary of tosylate): Metastable

COCC[C@H]1CC2CN3CCc4c([nH]c5ccccc45)[C@](C(=O)OC)(C2)[C@H]13 [sulfate Type B, 18-methoxycoronaridine]
form conversion, summary statement [3, 5]: converted to sulfate Type E | form change after storage (XRPD) ([3]; storage at RT in a sealed vial for ~12 days): form change to sulfate Type E

COCC[C@H]1CC2CN3CCc4c([nH]c5ccccc45)[C@](C(=O)OC)(C2)[C@H]13 [HCl salt Type B, 18-methoxycoronaridine]
Form after heating [1]: HCl salt Type A | Form after desolvation [2]: HCl salt Type A

COCC[C@H]1CC2CN3CCc4c([nH]c5ccccc45)[C@](C(=O)OC)(C2)[C@H]13 [HCl salt Type I, 18-methoxycoronaridine]
Form after desolvation [2]: HCl salt Type A

COCC[C@H]1CC2CN3CCc4c([nH]c5ccccc45)[C@](C(=O)OC)(C2)[C@H]13 [sulfate Type F, 18-methoxycoronaridine]
physical stability at ambient conditions ([3]; ambient conditions, time not stated): not physically stable | form change after exposure to ambient conditions (XRPD) [3]: converted back to sulfate Type D | form change after heating (XRPD/VT-XRPD) ([1]; heating to 100° C.): remained sulfate Type F

COCC[C@H]1CC2CN3CCc4c([nH]c5ccccc45)[C@](C(=O)OC)(C2)[C@H]13 [tosylate Type C, 18-methoxycoronaridine]
form change after storage (XRPD) ([3]; storage at RT for about 2.5 month): form change to tosylate Type B | form change after N2 drying (VT-XRPD) ([1]; N2-drying for 30 min at 30° C.): form change was observed for tosylate Type C. The new form was assigned as tosylate Type D

COCC[C@H]1CC2CN3CCc4c([nH]c5ccccc45)[C@](C(=O)OC)(C2)[C@H]13 [HCl salt Type A+O, 18-methoxycoronaridine]
form change after storage (XRPD) ([3]; storage at RT for ~19 days): converted to HCl salt Type A completely

COCC[C@H]1CC2CN3CCc4c([nH]c5ccccc45)[C@](C(=O)OC)(C2)[C@H]13 [HCl salt Type A+L, 18-methoxycoronaridine]
form change after storage (XRPD) ([3]; storage at RT for ~22 days): converted to HCl salt Type A completely

COCC[C@H]1CC2CN3CCc4c([nH]c5ccccc45)[C@](C(=O)OC)(C2)[C@H]13 [HCl salt Type D, 18-methoxycoronaridine]
Form after treatment ([3]; Air drying): HCl salt Type A** | Form after heating [1]: HCl salt Type A*

COCC[C@H]1CC2CN3CCc4c([nH]c5ccccc45)[C@](C(=O)OC)(C2)[C@H]13 [HCl salt Type J, 18-methoxycoronaridine]
Form after treatment ([3]; RT storage): HCl salt Type F^# | Form after heating [1]: HCl salt Type F*

COCC[C@H]1CC2CN3CCc4c([nH]c5ccccc45)[C@](C(=O)OC)(C2)[C@H]13 [HCl salt Type L, 18-methoxycoronaridine]
Form after treatment ([3]; RT storage): HCl salt Type A^# | form conversion, summary statement [3, 5]: converted to HCl salt Type A | Form after heating [1]: HCl salt Type A

COCC[C@H]1CC2CN3CCc4c([nH]c5ccccc45)[C@](C(=O)OC)(C2)[C@H]13 [HBr salt Type B, 18-methoxycoronaridine]
form conversion, summary statement [3, 4]: could convert to HBr salt Type A | Form change on storage ([3]; storage at RT for ~20 days): *: Partially converted to HBr salt Type A after storage at RT for ~20 days. | form change after storage (XRPD) ([3]; storage at RT for ~20 days): partially converted to HBr salt anhydrate Type A

COCC[C@H]1CC2CN3CCc4c([nH]c5ccccc45)[C@](C(=O)OC)(C2)[C@H]13 [HCl salt Type C, 18-methoxycoronaridine]
Form after heating [1]: HCl salt Type A | Form after desolvation [2]: HCl salt Type A

COCC[C@H]1CC2CN3CCc4c([nH]c5ccccc45)[C@](C(=O)OC)(C2)[C@H]13 [sulfate Type C, 18-methoxycoronaridine]
form conversion, summary statement [3, 5]: converted to sulfate Type A | form change after air drying (XRPD) ([3]; air drying at RT for ~30 min): converted to sulfate Type A

COCC[C@H]1CC2CN3CCc4c([nH]c5ccccc45)[C@](C(=O)OC)(C2)[C@H]13 [HCl salt Type T, 18-methoxycoronaridine]
form conversion, summary statement [1]: converted to HCl salt Type A | form change after heating (XRPD) ([1]; heating to 150° C.): most diffraction peaks were consistent with HCl salt Type A | Form after desolvation [2]: HCl salt Type A

COCC[C@H]1CC2CN3CCc4c([nH]c5ccccc45)[C@](C(=O)OC)(C2)[C@H]13 [HCl salt Type A+N, 18-methoxycoronaridine]
form change after storage (XRPD) ([3]; storage at RT for ~21 days): converted to HCl salt Type A completely

COCC[C@H]1CC2CN3CCc4c([nH]c5ccccc45)[C@](C(=O)OC)(C2)[C@H]13 [HCl salt Type P, 18-methoxycoronaridine]
form change after N2 drying (VT-XRPD) ([1]; N2-drying for 20 min at 30° C.): no form change | form conversion, summary statement [1]: converted to HCl salt Type A | form change after heating (XRPD) ([1]; heating to 80° C. and cooling back to RT): no obvious form change | form change after heating (XRPD/VT-XRPD) ([1]; heating to 100° C.): form change to HCl salt Type A | form change after heating (XRPD) ([1]; heating to 150° C.): converted to HCl salt Type A | form change after heating (VT-XRPD) ([1]; heating to 210° C. under N2 protection): amorphous sample was observed | Form after desolvation [2]: HCl salt Type A

COCC[C@H]1CC2CN3CCc4c([nH]c5ccccc45)[C@](C(=O)OC)(C2)[C@H]13 [tosylate Type A, 18-methoxycoronaridine]
form change after storage (XRPD) ([3]; storage at RT for ~7 days): peak of tosylate Type B was observed | form change after storage (XRPD) ([3]; storage for 3 weeks): totally converted to tosylate Type B | form change after N2 drying (VT-XRPD) ([1]; N2-drying for 30 min at 30° C.): no form change | form change after heating (XRPD/VT-XRPD) ([1]; heating to 100° C.): a form change was observed, which was assigned as tosylate Type I

COCC[C@H]1CC2CN3CCc4c([nH]c5ccccc45)[C@](C(=O)OC)(C2)[C@H]13 [HCl salt Type K, 18-methoxycoronaridine]
Form change after treatment ([3]; Exposure to ambient conditions (~50%RH), XRPD form): HCl salt Type F^#

COCC[C@H]1CC2CN3CCc4c([nH]c5ccccc45)[C@](C(=O)OC)(C2)[C@H]13 [HCl salt Type A, 18-methoxycoronaridine]
thermodynamic stability among HCl salt forms ([2]; at RT): thermodynamically more stable than other anhydrates; also recorded: most thermodynamically stable form | thermodynamic stability among hydrochloride salt forms ([2]; temperature not stated): most thermodynamically stable form

COCC[C@H]1CC2CN3CCc4c([nH]c5ccccc45)[C@](C(=O)OC)(C2)[C@H]13 [HCl salt Type U, 18-methoxycoronaridine]
form conversion, summary statement [1]: converted to HCl salt Type A | form change after heating (XRPD/VT-XRPD) ([1]; heating to 120° C.): an extra peak representative of HCl salt Type A was observed | form change after heating (XRPD) ([1]; heating to 150° C.): most diffraction peaks were consistent with HCl salt Type A | Form after desolvation [2]: HCl salt Type A

COCC[C@H]1CC2CN3CCc4c([nH]c5ccccc45)[C@](C(=O)OC)(C2)[C@H]13 [HBr salt Type D, 18-methoxycoronaridine]
form conversion, summary statement [3, 4]: could convert to HBr salt Type A | form change after heating (XRPD/VT-XRPD) ([1]; heating to 100° C.): extra peak of HBr salt Type A was observed | form change after heating (XRPD) ([1]; heating to 150° C.): most diffraction peaks of the sample were consistent with HBr salt Type A
